Data published in ChEMBL document CHEMBL1131160, “5-Substituted pyrimidines with a 1,5-anhydro-2, 3-dideoxy-D-arabino-hexitol moiety at N-1: synthesis, antiviral activity, conformational analysis, and interaction with viral thymidine kinase” (1998).
Values after ≈ are worked out from the molar mass of the structure shown.

Experiments:
E6SM [1] = test: Compound was evaluated for the minimum inhibition concentration required to reduce virus-induced cytopathogenicity by 50%, determined against KOS,F,McIntyre strains of HSV-1 virus.; assay type: functional; details: Homo sapiens
E6SM [2] = test: Compound was evaluated for the minimum inhibition concentration required to reduce virus-induced cytopathogenicity by 50%, determined against HSV-2 virus as means of G, 196, and Lyons strains; assay type: functional; details: Homo sapiens
[3] = system: Human cytomegalovirus (AD-169); test: Compound was evaluated for the minimum inhibition concentration required to reduce virus-induced cytopathogenicity by 50%, determined against Cytomegalovirus (AD-169) in HEL cells.
E6SM [4] = test: Compound was evaluated for the minimum inhibition concentration required to reduce virus-induced cytopathogenicity by 50%, determined against HSV-1 (TK-B2006) virus; assay type: functional; details: Homo sapiens
E6SM [5] = test: Compound was evaluated for the minimum cytotoxic concentration required to cause a microscopically detectable alteration of normal cell morphology.; assay type: functional; details: Homo sapiens

Row | Compound | MIC (E6SM [1]) [µg/mL] | MIC (E6SM [2]) [µg/mL] | MIC [3] [µg/mL] | MIC (E6SM [4]) [µg/mL] | MCC (E6SM [5]) [µg/mL]
1 | C#Cc1cn(C2COC(CO)C(O)C2)c(=O)[nH]c1=O (configuration not stated) | 48 (≈ 180 µM) | > 400 | > 50 | > 400 | –
2 | O=c1[nH]c(=O)n(C2COC(CO)C(O)C2)cc1Cl (configuration not stated) | > 400 | > 400 | > 50 | > 400 | > 400
3 | O=c1[nH]c(=O)n(C2COC(CO)C(O)C2)cc1C(F)(F)F (configuration not stated) | 0.025 (≈ 0.0806 µM) | 0.38 (≈ 1.22 µM) | > 50 | 9.8 (≈ 31.6 µM) | > 400
4 | CC#Cc1cn(C2COC(CO)C(O)C2)c(=O)[nH]c1=O (configuration not stated) | 0.38 (≈ 1.36 µM) | 16 (≈ 57.1 µM) | > 50 | 48 (≈ 171 µM) | > 400
5 | C=Cc1cn(C2COC(CO)C(O)C2)c(=O)[nH]c1=O (configuration not stated) | 0.075 (≈ 0.28 µM) | 9.6 (≈ 35.8 µM) | > 50 | 240 (≈ 895 µM) | > 400
6 | O=c1[nH]c(=O)n(C2COC(CO)C(O)C2)cc1-c1cccs1 (configuration not stated) | 240 (≈ 740 µM) | 240 (≈ 740 µM) | > 50 | 240 (≈ 740 µM) | > 400
7 | O=c1[nH]c(=O)n(C2COC(CO)C(O)C2)cc1I (configuration not stated) | 0.025 (≈ 0.0679 µM) | 0.5 (≈ 1.36 µM) | > 40 | > 400 | > 400
8 | Nc1nc2c(ncn2COCCO)c(=O)[nH]1 [ACYCLOVIR] | 0.075 (≈ 0.333 µM) | 0.38 (≈ 1.69 µM) | – | 1.92 (≈ 8.53 µM) | > 200
9 | O=c1[nH]c(=O)n([C@H]2C[C@H](O)[C@@H](CO)O2)cc1/C=C/Br [BRIVUDINE] | 0.015 (≈ 0.045 µM) | > 80 | – | 3.2 (≈ 9.61 µM) | > 200
